From patent publication US12252701B2, “Chimeric antigen receptor T cell therapy” (KITE PHARMA, INC., priority 2020, dated 2025)

Legend:
[1] = cited from earlier work
[2] = test system: CAR-T cells; test: CAR-T cell expansion assay (KIP-1 or CD3/CD28 stimulation); conditions: for % viabili.: CD3/CD28 stimulation; for % viabi.: KIP-1 stimulation
[3] = test system: Nalm-6 luc; test: CAR-T cell killing assay (luciferase viability of tumor cells)
[4] = test system: CD19 CAR T cells; test: CAR T cell cytokine production (Luminex) under CD19 K562, KIP-1 or CD2/3/28 stimulation; conditions: K562-CD19 stimulation, 72 h
Method: Cryopreserved healthy donor CLP CD19 CAR T cells were thawed and rested overnight in 100 U/ml of IL-2 at 1×10^6/ml. 2.5×10^5 CD19 CART cells were plated in 96-well RB plate wells in a total volume of 200 μl of R10 culture media. […] CD19 CART cell cytokine production was allowed to proceed through 72 hours in the presence of stimulator and JAKi or steroid. Following 72 h of culture, 100 μl of the cell supernatant of each well were harvested and stored at −80° C. for later Luminex/Bioplex-200 cytokine analysis. Briefly, stored supernatants were thawed and 50 μl of the sample was assayed for cytokines using a ThermoFisher Procarta Plex 19-plex human cytokine assay kit (ThermoFisher, Carlsbad, CA) according to kit manufacturer's instructions and detected using a BioRad Bioplex-200 instrument. The data points generated from the luminex cytokine assay were transferred to a GraphPad PRISM IC50 dose-response curve analysis to generate IC50 or potency values for the JAKi's and steroids tested.

C[C@@H]1CCN(C(=O)CC#N)C[C@@H]1N(C)c1ncnc2[nH]ccc12 [tofacitinib]
Cmax ([1]; human, in vivo): 58 ng/mL | Protein binding ([1]; plasma protein binding, reported): 40% | % viabili. ([2]; 10 nM, Day 0): 84% | % viabili. ([2]; 10 nM, Day 4): 70.8% | % viabili. ([2]; 10 nM, Day 8): 80.9% | % viabili. ([2]; 10 nM, Day 12): 82.9% | % viabili. ([2]; 20 nM, Day 0): 84% | % viabili. ([2]; 20 nM, Day 4): 81.1% | % viabili. ([2]; 20 nM, Day 8): 70.1% | % viabili. ([2]; 20 nM, Day 12): 79.5% | % viabili. ([2]; 40 nM, Day 0): 84% | % viabili. ([2]; 40 nM, Day 4): 89.2% | % viabili. ([2]; 40 nM, Day 8): 73.5% | % viabili. ([2]; 40 nM, Day 12): 74.8% | % viabili. ([2]; 60 nM, Day 0): 84% | % viabili. ([2]; 60 nM, Day 4): 93.1% | % viabili. ([2]; 60 nM, Day 8): 86.6% | % viabili. ([2]; 60 nM, Day 12): 74.5% | % viabili. ([2]; 80 nM, Day 0): 84% | % viabili. ([2]; 80 nM, Day 4): 91.7% | % viabili. ([2]; 80 nM, Day 8): 86.3% | % viabili. ([2]; 80 nM, Day 12): 77% | % viabili. ([2]; 100 nM, Day 0): 84% | % viabili. ([2]; 100 nM, Day 4): 94.3% | % viabili. ([2]; 100 nM, Day 8): 85.5% | % viabili. ([2]; 100 nM, Day 12): 73.9% | % viabi. ([2]; 10 nM, Day 0): 84% | % viabi. ([2]; 10 nM, Day 4): 77.9% | % viabi. ([2]; 10 nM, Day 8): 61.2% | % viabi. ([2]; 10 nM, Day 12): 85.2% | % viabi. ([2]; 20 nM, Day 0): 84% | % viabi. ([2]; 20 nM, Day 4): 84.7% | % viabi. ([2]; 20 nM, Day 8): 64.9% | % viabi. ([2]; 20 nM, Day 12): 79.3% | % viabi. ([2]; 40 nM, Day 0): 84% | % viabi. ([2]; 40 nM, Day 4): 84.3% | % viabi. ([2]; 40 nM, Day 8): 77.5% | % viabi. ([2]; 40 nM, Day 12): 76% | % viabi. ([2]; 60 nM, Day 0): 84% | % viabi. ([2]; 60 nM, Day 4): 82.3% | % viabi. ([2]; 60 nM, Day 8): 70.2% | % viabi. ([2]; 60 nM, Day 12): 76.1% | % viabi. ([2]; 80 nM, Day 0): 84% | % viabi. ([2]; 80 nM, Day 4): 81.8% | % viabi. ([2]; 80 nM, Day 8): 69.7% | % viabi. ([2]; 80 nM, Day 12): 73.4% | % viabi. ([2]; 100 nM, Day 0): 84% | % viabi. ([2]; 100 nM, Day 4): 73.2% | % viabi. ([2]; 100 nM, Day 8): 72.7% | % viabi. ([2]; 100 nM, Day 12): 79.4% | effect on T cell expansion ([2]; at the doses tested (Table 40)): moderate effects | impacts on expansion in further dose titrations ([2]; compared with upadacitinib and baricitinib): less severe in comparison | Mean tumor cell death (%) ([3]; E:T ratio 1:1, dose 10 nM): 98.6% | Mean tumor cell death (%) ([3]; E:T ratio 1:1, dose 20 nM): 98.4% | Mean tumor cell death (%) ([3]; E:T ratio 1:1, dose 40 nM): 96.1% | Mean tumor cell death (%) ([3]; E:T ratio 1:1, dose 60 nM): 97.9% | Mean tumor cell death (%) ([3]; E:T ratio 1:1, dose 80 nM): 98% | Mean tumor cell death (%) ([3]; E:T ratio 1:1, dose 100 nM): 97.2% | Mean tumor cell death (%) ([3]; E:T ratio 1:3, dose 10 nM): 83.2% | Mean tumor cell death (%) ([3]; E:T ratio 1:3, dose 20 nM): 87.3% | Mean tumor cell death (%) ([3]; E:T ratio 1:3, dose 40 nM): 85.5% | Mean tumor cell death (%) ([3]; E:T ratio 1:3, dose 60 nM): 75.7% | Mean tumor cell death (%) ([3]; E:T ratio 1:3, dose 80 nM): 66.6% | Mean tumor cell death (%) ([3]; E:T ratio 1:3, dose 100 nM): 46.8% | Mean tumor cell death (%) ([3]; E:T ratio 1:9, dose 10 nM): 37% | Mean tumor cell death (%) ([3]; E:T ratio 1:9, dose 20 nM): 28.9% | Mean tumor cell death (%) ([3]; E:T ratio 1:9, dose 40 nM): 36% | Mean tumor cell death (%) ([3]; E:T ratio 1:9, dose 60 nM): 40.5% | Mean tumor cell death (%) ([3]; E:T ratio 1:9, dose 80 nM): 28.2% | Mean tumor cell death (%) ([3]; E:T ratio 1:9, dose 100 nM): 25.6% | Suppression of cytokine production, IFNg (IC50) [4]: Suppress | Suppression of cytokine production, IL-6 (IC50) [4]: Suppress
